Measurements from patent US20260262641A1 (priority 2023, published 2026).

Legend:
[1] = system: ground pearl (Margarodes spp); test: Field trial in kikuyu turf, control of ground pearl, Sydney (Example 2); format: in vivo
Procedure: A field trial was conducted in kikuyu turf, to evaluate fenpyroximate for control of ground pearl (Margarodes spp). The trial was located at Sydney University, New South Wales (−33.888, 151.188), in an area with a known infestation of ground pearl.
All treatments were applied using a hand boom fitted with XR11004 nozzles, in a spray volume of 430 L/ha.
The ground pearl density by species was assessed by sampling 20 cores per plot and recording the number of eggs and adults, and Normalized Difference Vegetation Index (NDVI) was assessed 56 days after the third application using a Greenseeker.
(§1) All data was statistically analyzed using analysis of variance and Fisher's protected least significant different test (Fishers LSD). The level of significance for all tests was P<0.05.

[2] = system: redlegged earth mite (H. destructor; RLEM); test: Field trial in canola, pre- or post-emergent control of RLEM (Example 5); format: in vivo, Halotydeus destructor
Procedure: A field trial was conducted in canola cv. Garrison, to evaluate fenpyroximate for control of redlegged earth mite (H. destructor; RLEM) as a pre- or post-emergent application. The trial was located at Beverley, Western Australia (−32.2248085, 117.0268493). The canola was sown on 13th June 2023. […] All treatments were applied using a hand boom fitted with flat fan nozzles in a spray volume of 100 L/ha.
The density of RLEM was assessed 33 days after the second application timing by counting the number of mites per plant.
as §1

[3] = system: ground pearl (Margarodes spp); test: Field trial in kikuyu turf, control of ground pearl, Robina (Example 6); format: in vivo
Procedure: A field trial was conducted in kikuyu turf, to evaluate fenpyroximate for control of ground pearl (Margarodes spp). The trial was located at Robina, Queensland (−28.069442, 153.401817), in an area with a known infestation of ground pearl.
All treatments were applied using a hand boom fitted with XC08 nozzles, in a spray volume of 443 L/ha.
The ground pearl density by species was assessed prior to the first application and again 21 days after the third application by sampling 20 cores per plot and recording the number of eggs and adults. Turf vigor was assessed on a 0 to 10 rating scale (0=dead; 10=best quality/color) prior to the first application and 42 days after the third application.
as §1

[4] = system: couch mite (Aceria cynodoniensis); test: Field trial in hybrid couch turfgrass, control of couch mite (Example 7); format: in vivo
Procedure: A field trial was conducted in hybrid couch turfgrass, to evaluate fenpyroximate for control of couch mite (Aceria cynodoniensis). The trial was located at Oxley Golf Club, Oxley Queensland (−27.57077, 152.99762). […] All treatments were applied using a hand boom fitted with XR11004 nozzles and in a spray volume of 430 L/ha.
The severity of couch mite damage to the terminal growth point (known as witches' broom) was assessed pre-spraying, then at 42 and 56 days after the second application. The density of couch mite was assessed pre-spraying and at 28 days after the second application. Turf quality was assessed on a 0 to 9 rating scale (0=dead; 9=best quality/color) prior to the first application and 14 days after the second application.
as §1

[5] = system: ground pearl (Margarodes spp); test: Field trial in kikuyu turf, control of ground pearl, Robina (Example 6); format: in vivo; settings: 56 DAA3 (head); 0=dead; 10=best quality/color; product rate mL/ha: Meridian 1200, Kohinor 350 SC 1500, Fenpyroximate 50 SC 4000; each with Stamina B 20000
[6] = versus untreated, P<0.05, with PE 6200
[7] = 21 days after third application, product rate mL or g/ha: Meridian 1200, Kohinor 350 SC 1500, Fenpyroximate 50 SC 4000 (200 g ai/ha), each with Stamina B 20000
[8] = Pre-spray (baseline), 20 cores per plot

Cc1nn(C)c(Oc2ccccc2)c1C=NOCc1ccc(C(=O)OC(C)(C)C)cc1 [Fenpyroximate]
NDVI, Pre-spray ([1]; Pre-spray (baseline), kikuyu turf, Greenseeker): 8.0
Ground pearls/plot, Adults, Pre-spray ([1]; sc): 4.0 a ground pearls/plot
Ground pearls/plot, Eggs, Pre-spray ([1]; sc): 10.3 a ground pearls/plot
Ground pearls/plot, Adults, 56 DAA3 ([1]; sc, 200 g/ha, 1344 h): 12.8 a ground pearls/plot
Ground pearls/plot, Eggs, 56 DAA3 ([1]; sc, 200 g/ha, 1344 h): 5.3 a ground pearls/plot
NDVI, 56 DAA3 ([1]; sc, 1344 h): 7.6
turf color and quality / NDVI (in words) ([1]; versus untreated, P<0.05): significantly improved
density of ground pearl adults (in words) [1, 6]: significantly reduced
density of ground pearl eggs (in words) [1, 6]: significantly reduced
% Control (33 DAA2) ([2]; application timing A (post-sow pre-emergent), product rate 1000 mL/ha): 67%
% Control (33 DAA2) ([2]; application timing A (post-sow pre-emergent), product rate 2000 mL/ha): 61%
% Control (33 DAA2) ([2]; application timing B (early post-emergent, 1 to 2 leaf canola), product rate 1000 mL/ha): 63%
% Control (33 DAA2) ([2]; application timing B (early post-emergent, 1 to 2 leaf canola), product rate 2000 mL/ha): 68%
Ground pearls/plot, Adults, 21 DAA3 [3, 7]: 1.0 ab ground pearls/plot
Ground pearls/plot, Eggs, 21 DAA3 [3, 7]: 1.0 abc ground pearls/plot
Turf vigor (0-10), Pre-spray ([3]; Pre-spray (baseline), 0=dead, 10=best quality/color): 5.1
Ground pearls/plot, Adults, Pre-spray [3, 8]: 6.7 ground pearls/plot
Ground pearls/plot, Eggs, Pre-spray [3, 8]: 4.0 ground pearls/plot
density of ground pearl eggs and adults (in words) ([3]; versus untreated, P<0.05): significantly reduced
turf vigor (in words) ([3]; versus untreated, P<0.05): significantly improved
Couch mites/3 terminals, 28 DAA2 ([4]; 28 DAA2, product rate mL/ha: Abazine Miticide 1350, Fenpyroximate 50 SC 2000): 45.8 mites/3 terminals
Turf quality (0-9), 14 DAA2 ([4]; 14 days after second application, 0=dead, 9=best quality/color, product rate mL/ha: Abazine Miticide 1350, Fenpyroximate 50 SC 2000): 5.1
% Severity mite damage, 42 DAA2 ([4]; 42 days after second application, product rate mL/ha: Abazine Miticide 1350, Fenpyroximate 50 SC 2000 (100 g ai/ha)): 7.0 a %
% Severity mite damage, 56 DAA2 ([4]; 56 days after second application, product rate mL/ha: Abazine Miticide 1350, Fenpyroximate 50 SC 2000 (100 g ai/ha)): 6.5 a %
Couch mites/3 terminals, Pre-spray ([4]; Pre-spray (baseline)): 130.5 mites/3 terminals
Turf quality (0-9), Pre-spray ([4]; Pre-spray (baseline), 0=dead, 9=best quality/color): 4.5
% Severity mite damage, Pre-spray ([4]; Pre-spray (baseline), witches' broom): 40.0%
density of couch mite (in words) ([4]; versus untreated, P<0.05): significantly both reduced
turf quality (in words) ([4]; versus untreated, P<0.05): improved
Turf vigor (0-10), 56 DAA3 [5]: 6.2 a
